Results from the OPERA property sets (Mansouri et al. 2018).
Residues, ends and D or L forms follow the SMILES beside them. *: point of attachment. Cbz = O=C(OCc1ccccc1)*

SMILES | logP
CNP(=O)(OC)Oc1ccc(Cl)cc1Cl (centres undefined) | 2.41
COc1ccc(Cc2ccccc2C(N)=O)cc1 | 1.63
CC1(C)N=C(N)N=C(N)N1c1ccc(I)cc1 | 1.39
CC1=Nc2c(Cl)cccc2S(=O)(=O)N1 | 0.72
S=C=NC(c1ccccc1)c1cccc2ccccc12 (centres undefined) | 6.44
CCN(CC)CCNC(=O)c1cc(S(C)(=O)=O)ccc1OC | 0.9
CCCCN(SN(C)C(=O)ON=C(C)SC)C(=O)OC | 2.5
O=C(CN1CCCCC1)Nc1cccc(Cl)c1 | 3.45
FC(F)(F)c1nc2c(Br)c(Br)c(Br)cc2[nH]1 | 4.08
COc1cc(Cc2cnc(N)nc2N)cc(OC)c1C(C)C | 3.37
O=C([O-])c1ccc2ccccc2c1.[Na+] | -1.07
COc1cc(C)n(-c2nc(C)cc(C)n2)n1 | 1.82
COc1cc(Cc2cnc(N)nc2N)cc(OC)c1C(=O)N(C)C | -0.21
COc1ccccc1C(=O)NCCN | 0
COP(=O)(OC)Oc1ccc([N+](=O)[O-])c(Cl)c1 | 1.83
CN(C)CCC=C1c2ccccc2CCc2c(Cl)cccc21 | 5.55
CC(=O)c1cccc(N2C(N)=NC(N)=NC2(C)C)c1 | -0.22
COc1cc(Cc2cnc(N)nc2N)cc(OC)c1N | 0.83
CC(C)c1nnc(N)o1 | 0.2
CN(C=O)c1ccc(S(=O)(=O)N(C)C)cc1 | 0.4
O=S1(=O)NC(CCl)=Nc2cc(Cl)ccc21 | 1.68
CC(=O)OCC1=C(C(=O)O)N2C(=O)C(NC(=O)CSc3cc(Cl)ccc3Cl)C2SC1 (centres undefined) | 1.66
CS(=O)(=O)Oc1ccccc1Cc1cnc(N)nc1N | 0.71
O=S(=O)(Nc1cn[nH]c1)c1ccccc1 | 0.87
CCCCc1ccc2nc(C(F)(F)F)[nH]c2c1 | 4.27

SMILES | logP
C[N+](C)(C)Cc1cccc(O)c1.[Br-] | -2.4
O=[N+]([O-])c1cnc(N=C2SCCN2CCO)s1 | 1.28
CON(C)C(=O)Nc1cccc(F)c1 | 1.68
CCOC(=O)C(=Cc1ccccc1Cl)C(=O)OCC | 3.15
O=CNC=Cc1ccccc1 | 1.95
CCc1cnc2cccc(C)n2c1=O | 1.79
COC(=O)C(C#N)=NNc1cc(C(F)(F)F)ccc1Cl | 4.42
O=[N+]([O-])c1nccn1CC(O)COCC(F)(F)F (centres undefined) | 0.52
O=[N+]([O-])c1ccc(Oc2ccc(C(F)(F)F)cc2[N+](=O)[O-])cc1 | 3.65
CCN(CC)c1nc(N(C)C)nc(N(C)C)n1 | 3.45
OC1C(Cl)C(Cl)C(Cl)C(Cl)C1Cl (centres undefined) | 2.54
Clc1cc(Cl)c(N=C2NCCN2)c(Cl)c1 | 2.18
O=[N+]([O-])c1nccn1CC(O)CCl (centres undefined) | 0.15
CCSc1c(OC)cc(Cc2cnc(N)nc2N)cc1OC | 1.79
O=S1(=O)NC(c2cccs2)=Nc2ccccc21 | 1.68
CCSCC1=Nc2cc(Cl)ccc2S(=O)(=O)N1 | 2.26
O=C(O)CCSc1c[nH]c2ccccc12 | 2.15
CC1=Nc2c(C)cccc2S(=O)(=O)N1 | 0.52
CC(=O)Nc1cnc2ccccc2c1 | 1.92
FC(F)(F)CCc1ccccc1 | 3.31
Cn1ncc2ccccc2c1=O | 0.61
CCCSC1OC(CO)C(O)C(O)C1O (centres undefined) | -1.18
CCCCc1nnc(N)o1 | 0.65
Oc1ccnc2c(O)cccc12 | 0.62
CCOC(=O)C(C#N)=NNc1cc(C(F)(F)F)ccc1Cl | 4.45

SMILES | logP
CC1CN(N=O)C(C)CN1N=O (centres undefined) | 0.15
CC1=Nc2cc(N)c(Cl)cc2S(=O)(=O)N1 | 0.63
Clc1ccc(Cl)c(-c2ccccc2)c1Cl | 5.67
CCOC(=O)CN(C(=O)CCl)c1ccccc1CC | 2.57
CN(C)N=Nc1ccc(C#N)cc1 | 2.39
CNC(=O)C(NC(C)=O)C(C)C (centres undefined) | -0.35
COc1cc(C)c(Cc2cnc(N)nc2N)cc1OC | 1.23
CCCOn1c(=O)[nH]c(C)c(SC#N)c1=O | -0.22
CN1CCN=C1Nc1ncc([N+](=O)[O-])s1 | 1.8
CNP(=O)(OC)Oc1ccc(SC)cc1 (centres undefined) | 1.81
CCNC1CC2CC1c1ccccc12 (centres undefined) | 2.72
COc1cc(Cc2cnc(N)nc2N)cc(OC)c1C(C)=O | 1.1
O=S1(=O)NC(C2CC3C=CC2C3)=Nc2ccccc21 (centres undefined) | 2.06
O=C(CNC(=O)c1ccccc1)Oc1cccc(Cl)c1 | 3.21
CNC1=NC(=O)C(=Cc2ccc([N+](=O)[O-])o2)S1 | 1.16
O=NN(CCF)C(=O)NC1CSCSC1 | 1.54
CCCC(=O)Nc1ccc(C)cc1O | 2.26
CCN1C(=N)SC(=Cc2ccc([N+](=O)[O-])o2)C1=O | 1.44
CNC(=O)c1ccc(S(N)(=O)=O)cc1 | -0.31
O=S(=O)(Nc1ccc(Cl)cc1)C(F)(F)F | 3.96
O=[N+]([O-])c1cnc(N=C2NCC(O)CN2)s1 (centres undefined) | 0.74
CCN1CCCCCC1=O | 0.65
CNc1cc(Cc2cnc(N)nc2N)cc(N(C)C(C)=O)c1C | 0.53
CCCCC1OC(=O)c2cc(NC(C)=O)ccc21 (centres undefined) | 2.77
CCOP(=O)(OCC)Oc1ccc(SC)cc1 | 2.79

SMILES | logP
COc1cccc(OC2OC(CO)C(O)C(O)C2O)c1 (centres undefined) | -0.52
CC(=O)C(C#N)=NNc1cc(Cl)cc(Cl)c1 | 4.68
COCN1C(=O)CN=C(c2ccccc2F)c2cc(N)ccc21 | 1.31
COc1cc(CC(=O)O)ccc1OCC1CCCCC1 | 3.35
COc1ccc(C(=O)c2ccncc2)cc1 | 1.94
COc1cc(S(=O)(=O)CCN2CCCCC2)cc(OC)c1OC | 1.6
Brc1ccc(N=C2NCCN2)cc1 | 1.75
CC1CN(N=O)CCN1N=O (centres undefined) | -0.28
CSC(C)=NOC(=O)N(C)SN(C)C(=O)OC(C)(C)C | 2.8
O=NN(CCCl)C(=O)NCCO | 0.3
OCCCn1nnc2ccccc21 | 0.91
CC1COCCN1N=O (centres undefined) | -0.03
O=S(=O)(Nc1cccc(O)c1)C(F)(F)F | 2.51
CCCCN(SN(C)C(=O)ON=C(C)SC)C(=O)c1ccccc1 | 3.4
COc1cc(OC)c(OC)cc1CC(C)N (centres undefined) | 1.74
Cc1ccc(N2C(N)=NC(N)=NC2(C)C)cc1 | 0.85
FC(F)(F)c1nc2c(Cl)cc(Cl)cc2[nH]1 | 3.49
CCCCC1OC(=O)c2cc([N+](=O)[O-])ccc21 (centres undefined) | 2.92
NNC(=O)c1ccc(O)cc1 | -0.33
CC(=O)C(C#N)=NNc1cccc(Cl)c1 | 3.9
CCOC(=O)C(=Cc1cccc(F)c1)C(=O)OCC | 3.19
O=[N+]([O-])c1nccn1C1SC(CO)C(O)C(O)C1O (centres undefined) | -0.66
Nc1ccc2c(c1)C(c1ccccc1)=NCC(=O)N2 | 1
COc1cc(-n2c(=O)cc(C)n2C)nc(C)n1 | 0.7
CC1=C(C(=O)O)N2C(=O)C(NC(=O)Cc3cccs3)C2SC1 (centres undefined) | 0.61

SMILES | logP
FC(F)(F)c1nc2cc(Br)c(Br)cc2[nH]1 | 4.15
O=C1CN=C(c2ccc(C(F)(F)F)cc2)c2ccccc2N1 | 3.34
CCN(CC)CC(=O)NC1c2ccccc2-c2ccccc21 | 3.64
CCOC(=O)c1[nH]cnc1N=NN(C)C | 0.44
Cc1cc(=O)n2c(C)cccc2n1 | 1.05
CCOC(=O)C(C#N)=NNc1ccc(Cl)c(Cl)c1 | 4.66
Cc1[nH]c(=O)n(OC(C)C)c(=O)c1Br | 0.45
CCC1(CC)SCC(=O)NC1=O | 1.52
CCc1cnc(C=Cc2ccc([N+](=O)[O-])o2)nc1 | 1.55
N#Cc1cccc(OC(=O)CNC(=O)c2ccccc2)c1 | 2.11
CN(N=O)C1CCCCC1 | 1.43
C=CCS(=O)(=O)c1cc(OC)c(OC)c(OC)c1 | 1.34
CCCCCCNP(=O)(OC)SC (centres undefined) | 1.11
O=C(O)COc1cccc(S(=O)(=O)C(F)(F)F)c1 | 2.19
O=C1CN=C(c2ccccc2Cl)c2cc(Br)ccc2N1 | 3.3
CCCSc1nnc(C(C)C)c(=O)n1N | 2.12
COc1cc(C)nn1-c1nc(C)cc(C)n1 | 0.73
Cc1cc(C)cc(OC2OC(CO)C(O)C(O)C2O)c1 (centres undefined) | 0.26
CCCCNC(=O)NN | -0.6
CC(C)C(NC(=O)C(Cc1ccccc1)NC(=O)OCc1ccccc1)C(=O)O (stereo not drawn) (Cbz-Phe-Val-OH; configuration not given here) | 2.88
O=C1CN=C(c2ccccc2Br)c2cc(Cl)ccc2N1 | 3.17
COC(=O)C(C#N)=NNc1cccc(C(F)(F)F)c1 | 3.78
Cc1ccccc1C1=NCC(=O)N(C)c2ccc(Cl)cc21 | 3.03
COc1ccc(Cc2cnc(N)nc2N)cc1O | 0.74
O=S1(=O)NC(C(Cl)Cl)=Nc2cc(Cl)ccc21 | 1.81

SMILES | logP
COc1ccc2c(c1)C(c1ccccc1)=NCC(=O)N2 | 2.24
CCOC(=O)N(C)SN(C)C(=O)ON=C(C)SC | 1.9
CC(=O)c1cccc(NS(=O)(=O)C(F)(F)F)c1 | 2.78
Cc1ccccc1C1=NCC(=O)Nc2ccc(Cl)cc21 | 3.12
COC(=O)N(C)SN(C)C(=O)Oc1cccc2c1OC(C)(C)C2 | 3
CC(C)(C)c1cc(OC2OC(CO)C(O)C(O)C2O)cc(C(C)(C)C)c1 (centres undefined) | 2.73
CN(C)C(=O)OCc1ccccc1 | 2.16
O=C(CN1CCCCC1)Nc1ccc([N+](=O)[O-])cc1 | 2.72
CC(=O)c1ccccc1NCCO | 1.59
CCOn1c(=O)[nH]c(C)c(Br)c1=O | 0.11
C=CCOCC(O)Cn1ccnc1[N+](=O)[O-] (centres undefined) | 0.4
CN(N=Nc1ccc(C(N)=O)cc1)C(C)(C)C | 2.61
CC(=O)Nc1ccccc1C(C)=O | 1.5
O=NN(CCCl)C(=O)NC1CCCCC1O (centres undefined) | 1.75
COc1ccc(Cc2cnc(N)nc2N)cc1I | 2.09
NC(=O)c1cccc(OC(=O)CNC(=O)c2ccccc2)c1 | 1.2
O=C(NC1CC1)c1cc(N2CC2)c([N+](=O)[O-])cc1[N+](=O)[O-] | 0.74
OC(CN1CCCC1)c1ccccc1 (centres undefined) | 1.38
CCCCCCCCCCCCCC[n+]1ccccc1C.[I-] | 2.27
Nc1nc(N)nc(-c2c(Cl)cccc2Cl)n1 | 1.38
CSC(C)=NOC(=O)N(C)SN(C)C(=O)C(C)C | 2.2
CCCCCC(=O)N[C@@H]1C(=O)N2[C@@H]1SC(C)(C)[C@@H]2C(=O)O | 2.37
O=CN(Cc1ccccc1)c1ccccc1 | 2.62
CNC(=O)C(Cc1ccccc1)NC(C)=O (centres undefined) | 0.4
